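Values below derive from 48-hour exposures of cells grown in 96-well plates, with endpoints linearly interpolated between the two concentrations bracketing the appropriate inhibition level. At the GI50, growth is halved. TGI: concentration producing complete growth inhibition.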

The values that follow come from PubChem BioAssay (NCI).

Some test systems named below: CAKI-1 renal; HCT-15 colon; HL-60(TB) leukemia; HOP-62 NSCLC; SF-539 CNS; SK-MEL-28 melanoma; SK-OV-3 ovarian; TK-10 renal; HT29 colon; IGROV1 ovarian.
What all share (assay): DTP human tumour cell line panel, 48 h

As a reminder, the GI50 is the concentration that inhibits growth by half. In general, TGI refers to the concentration giving total growth inhibition. For `Oc1ccc(CCNc2nc3ccccc3c3[nH]c4ccccc4c23)cc1`, the GI50 was 1590 nM in the assay on CAKI-1 renal; 1.16 µM in the assay on HCT-15 colon; 2400 nM with HL-60(TB) leukemia; 1630 nM with HOP-62 NSCLC; 1.73 µM in the assay with SF-539 CNS; 1.61 µM in the assay on SK-MEL-28 melanoma. Besides, the GI50 in the assay on SK-OV-3 ovarian is 13.7 µM; in the assay with TK-10 renal, 1.75 µM. The TGI was found to be 3.76 µM with CAKI-1 renal; 2.93 µM in the assay with HCT-15 colon; 5.41 µM in the assay on HL-60(TB) leukemia; 3.35 µM with HOP-62 NSCLC; 3.19 µM in the assay with SF-539 CNS; 2.98 µM in the assay with SK-MEL-28 melanoma. Moreover, the TGI is 27 µM in the assay with SK-OV-3 ovarian and 3.3 µM with TK-10 renal.
As to `COc1cccc2c(Nc3ccc(C(=O)NCCN4CCNCC4)cc3)cc(-c3ccccc3)nc12`, the GI50 in the assay with CAKI-1 renal is above 100000 nM; with HCT-15 colon, 57.8 µM; with HOP-62 NSCLC it was above 100000 nM; with HT29 colon, 20.7 µM; in the assay with IGROV1 ovarian, 32.1 µM; with SF-539 CNS, 22.9 µM. Besides, the values for the GI50 in the assay on SK-MEL-28 melanoma, in the assay on SK-OV-3 ovarian and in the assay with TK-10 renal were 19 µM, above 100 µM and 57 µM, respectively. The TGI in the assay on CAKI-1 renal is above 100 µM; with HCT-15 colon, above 100 µM; in the assay on HOP-62 NSCLC, above 100 µM; in the assay with HT29 colon, above 100 µM; in the assay on IGROV1 ovarian, above 100 µM; in the assay on SF-539 CNS it was 57 µM. In addition, the TGI is 64.7 µM in the assay with SK-MEL-28 melanoma, above 100 µM in the assay on SK-OV-3 ovarian and above 100 µM in the assay with TK-10 renal.
For `CCOC(=O)/C(=C/c1ccc[nH]1)P(=O)(OCC)OCC`, the TGI with CAKI-1 renal, with HL-60(TB) leukemia, with HOP-62 NSCLC, with HT29 colon, in the assay with SF-539 CNS and in the assay on SK-MEL-28 melanoma was above 100 µM in each case. Moreover, the total growth inhibition concentration (TGI) with SK-OV-3 ovarian and with TK-10 renal was above 100 µM each time.
Consider `CC(=O)Nc1ccc(C(=O)NN2C(=O)CSC2c2ccccc2)cc1` (centres undefined), for which the TGI in the assay on HCT-15 colon, in the assay on HOP-62 NSCLC, in the assay with HT29 colon, in the assay on IGROV1 ovarian, with SF-539 CNS and with SK-MEL-28 melanoma was above 100 µM throughout. In addition, the TGI with SK-OV-3 ovarian and in the assay with TK-10 renal was above 100 µM in each case.
On to `CCCCc1c2c(nc3c1CC/C(=C\c1ccccc1)C3=O)CCCC2`, for which the total growth inhibition concentration (TGI) was 12.3 µM with HCT-15 colon; 10.3 µM in the assay on HL-60(TB) leukemia; 16.5 µM with HOP-62 NSCLC; 4.75 µM in the assay with HT29 colon; 15.2 µM in the assay on IGROV1 ovarian; 4.71 µM in the assay with SF-539 CNS. Besides, the concentration for total growth inhibition (TGI) came to 9.52 µM with SK-MEL-28 melanoma, 22.9 µM in the assay on SK-OV-3 ovarian and 21.1 µM in the assay with TK-10 renal.
Turning to `CCNC(=O)O/N=C1/C=C2CC[C@@H]3C(CC[C@@]4(C)C3CC[C@@H]4OC(=O)NCC)[C@@]2(C)CC1` (some centres undefined), the TGI was 16.9 µM with CAKI-1 renal; 11.2 µM in the assay on HCT-15 colon; above 100 µM in the assay on HOP-62 NSCLC; 10.3 µM in the assay on HT29 colon; above 100 µM with IGROV1 ovarian; above 100 µM in the assay with SF-539 CNS. Besides, the TGI in the assay on SK-MEL-28 melanoma is 14.6 µM; with SK-OV-3 ovarian it was 7.8 µM; with TK-10 renal it was 8.8 µM.
Regarding `CC1=C(C(=O)OC(C)(C)C)C(c2ccc([N+](=O)[O-])cc2)C(C(=O)OC(C)(C)C)=C(C)N1`, the TGI with CAKI-1 renal was determined as 56.4 µM; with HCT-15 colon, 62.5 µM; with HOP-62 NSCLC, 40.8 µM; with HT29 colon, 48.8 µM; in the assay with IGROV1 ovarian, 32.2 µM; with SF-539 CNS, 34.9 µM. Besides, the values for the TGI in the assay with SK-MEL-28 melanoma, in the assay with SK-OV-3 ovarian and in the assay on TK-10 renal were 43.4 µM, 73.3 µM and 38.1 µM, respectively.
As for `O=C(/C=C/N1CCN(c2cccc(Cl)c2)CC1)c1ccc(Cl)cc1`, the GI50 with CAKI-1 renal is 28800 nM; in the assay on HCT-15 colon, 31 µM; in the assay with HOP-62 NSCLC, 48400 nM; in the assay on HT29 colon, 32.8 µM; in the assay on SF-539 CNS, 22.8 µM; in the assay on SK-MEL-28 melanoma, 39.9 µM. Besides, the GI50 with SK-OV-3 ovarian was 50.9 µM; with TK-10 renal, 30.8 µM. Besides, the TGI is 71.1 µM in the assay with CAKI-1 renal; above 100 µM in the assay on HCT-15 colon; above 100 µM in the assay with HOP-62 NSCLC; above 100 µM in the assay with HT29 colon; 47.7 µM with SF-539 CNS; 91.2 µM in the assay with SK-MEL-28 melanoma. Also, the total growth inhibition concentration (TGI) in the assay with SK-OV-3 ovarian and in the assay with TK-10 renal was above 100 µM each time.
As to `Cc1cccc2c1Oc1ncccc1C2NC(=O)CN(C)C` (centres undefined), the TGI with HCT-15 colon, in the assay on HL-60(TB) leukemia, in the assay on HT29 colon, in the assay on IGROV1 ovarian, in the assay on SF-539 CNS and in the assay with SK-OV-3 ovarian was above 10 µM in each case. In the assay on TK-10 renal, this compound showed a TGI above 10 µM.
Consider `COc1cc2c(cc1OCCCN1CCN(CCCn3c4ccccc4c4ccccc43)CC1)N=C[C@@H]1CCCN1C2=O`, for which the 50% growth inhibitory concentration (GI50) in the assay on CAKI-1 renal is 148 nM; with HCT-15 colon, 0.623 µM; with HL-60(TB) leukemia it was 24.9 nM; in the assay with HOP-62 NSCLC, 242 nM; with HT29 colon, 0.0342 µM; with SF-539 CNS, 0.225 µM. In addition, the GI50 with SK-MEL-28 melanoma is 0.0516 µM; in the assay on SK-OV-3 ovarian, 0.32 µM; in the assay on TK-10 renal, 0.086 µM. Moreover, the TGI in the assay on CAKI-1 renal was found to be 1.17 µM; in the assay with HCT-15 colon it was 2.15 µM; in the assay on HOP-62 NSCLC it was 2.46 µM; with HT29 colon, 0.289 µM; with SF-539 CNS, 0.49 µM; with SK-MEL-28 melanoma it was 0.151 µM. Moreover, the TGI in the assay on SK-OV-3 ovarian stood at 1.27 µM; in the assay on TK-10 renal, 1.07 µM.
On to `Cn1ncc2c(c1=O)Nc1ccccc1S2(=O)=O`, for which the TGI was above 100 µM in the assay on CAKI-1 renal; above 100 µM with HCT-15 colon; above 100 µM in the assay on HOP-62 NSCLC; above 100 µM in the assay on HT29 colon; above 100 µM in the assay with IGROV1 ovarian; 49 µM with SF-539 CNS. Moreover, the concentration for total growth inhibition (TGI) with SK-MEL-28 melanoma, with SK-OV-3 ovarian and with TK-10 renal was above 100 µM throughout.
Regarding `Cn1nc(-c2ccccc2)c(C(=O)/C=C/c2ccccc2)c(N2CCCC2)c1=O`, the total growth inhibition concentration (TGI) in the assay with HCT-15 colon came out at 72.5 µM; in the assay on HL-60(TB) leukemia, 22.7 µM; with HOP-62 NSCLC it was 24.2 µM; with HT29 colon it was 26.9 µM; in the assay on IGROV1 ovarian it was 55.7 µM; in the assay with SF-539 CNS, 26.3 µM. Moreover, the total growth inhibition concentration (TGI) in the assay on SK-MEL-28 melanoma came to 32.8 µM; in the assay with SK-OV-3 ovarian, 85.9 µM; in the assay with TK-10 renal it was 49.3 µM.
Consider `NC1CC(n2ccc(=O)[nH]c2=O)OC1C(O)CO` (centres undefined), for which the total growth inhibition concentration (TGI) in the assay on HCT-15 colon, in the assay on HL-60(TB) leukemia, in the assay with HOP-62 NSCLC, with HT29 colon, with IGROV1 ovarian and in the assay with SF-539 CNS was above 100 µM in each case. Further, the TGI in the assay on SK-MEL-28 melanoma, in the assay on SK-OV-3 ovarian and in the assay with TK-10 renal was above 100 µM each time.
